# Measured values: patent publication EP1324760B1 (Board of Regents of the University of Nebraska, priority 2000, dated 2002)
# Like-named read-outs stand apart in the source and are kept apart here.
# Columns and labels:
# [1] = aqueous solubility (concentration at saturation); format: physicochemical; settings: water, read-out: Conc. at Saturation
# partition coefficient = format: physicochemical
solubility [1] [mg/mL],logP (partition coefficient),flux over one hour (MDCK monolayers; MDCK),logP (partition coefficient; studies in the laboratory),"flux over one hour (MDCK monolayers; MDCK monolayers, 60-minute period, share of the amount added that crossed to the other side)",Compound
205.9 ± 1.5,-1.13,approximately 20%,–,–,"CCOC(=O)CN(C)C(=N)N [Creatine Ethyl Ester, creatine ethyl ester]"
89.26 ± 0.8,-0.975,–,–,–,"CN(CC(=O)OCc1ccccc1)C(=N)N [Creatine Benzyl Ester, creatine benzyl ester]"
–,–,–,-1.82,approximately 10%,"CN(CC(=O)O)C(=N)N.O [creatine monohydrate, reference compound]"
